# Laboratory results as given in article PMC4654502, “Early Gelatinase Activity Is Not a Determinant of Long-Term Recovery after Traumatic Brain Injury in the Immature Mouse” (PLoS ONE, 2015).
# Experiments:
# [1] = tested on: controlled cortical impact TBI at p21; experiment: Resident-intruder test at adulthood after TBI at p21; format: in vivo, male C57Bl/6J mice; conditions: 25 mg/kg s.c. at 2, 4, 24, 48 h post-injury; tested at adulthood
# Description: (§1) The controlled cortical impact model of TBI was used as previously described. TBI to the p21 mouse approximates a toddler-aged child, based upon the structural, biochemical and behavioral characteristics of this age. Pups were anaesthetized with 1.25% 2,2,2-tribromoethanol (Avertin; Sigma-Aldrich, St. Louis, MO) in isotonic saline (i.p. bolus at 0.02 mL/g body weight). After craniotomy, mice were subjected to a controlled cortical impact at 4.5 m/s velocity and 1.73 mm depth of penetration, for a sustained depression of 150 ms, using a 3.0 mm convex impactor tip. Mice were maintained on a water-circulating heating pad throughout surgery and recovery. Following impact, the scalp was closed with sutures and each animal administered 0.5 ml of isotonic saline subcutaneously (s.c.) to prevent post-operative dehydration. Sham-operated mice underwent identical surgical procedures, including craniotomy, without receiving the cortical impact. All mice were closely monitored for 1–2 hours post-surgery until return of the righting reflex and full mobilization. […]
# To assess social investigative behaviors, a novel stimulus mouse (matched for strain, age and sex) was presented into the established home cage of the test mouse, and investigative behaviors were quantified from video recordings as previously described.
# [2] = tested on: controlled cortical impact TBI at p21; experiment: Three-chamber social approach task at adulthood after TBI at p21; format: in vivo, male C57Bl/6J mice; conditions: 25 mg/kg s.c. at 2, 4, 24, 48 h post-injury
# Description: as §1, with “mobilization. Mice were then returned to group-housing, and weighed post-surgery at days 1, 3, and weekly thereafter till the end of the study.” for “mobilization.”
# The three-chamber paradigm allows for the evaluation of social affiliation and social recognition in mice. […] Data were expressed as time spent in each chamber (% of total time).
compound,measurement,setting,value
O=S(=O)(CC1CS1)c1ccc(Oc2ccc(O)cc2)cc1 (stereo not drawn) [p-OH SB-3CT],injury-induced reduction in social investigation (resident-intruder),[1],independent of treatment with p-OH SB-3CT
same,"three-chamber task stage 2, preference for sociability",[2]; groups = injury or drug treatment,no overall differences between groups
same,"three-chamber task stage 3, lack of preference for social novelty after TBI",[2]; tested at adulthood,not rescued by p-OH SB-3CT
